Laboratory results published in patent US20260009065A1, “COMPOSITIONS FOR EXPOSING FILM-FORMING MICROBES AND METHODS FOR USE OF THE COMPOSITIONS” (Guild Associates Inc., priority 2022, published 2026).

Key:
S. proteamaculans [1] = experiment: Treatment Toxicity (ATP luminescence of cell free supernatant, BacTiterGlo), biofilm; type: cell-based, Serratia proteamaculans; conditions: for Treatment Toxicity % Ctr: Biofilm Lifestyle
Method: These enzyme combinations were tested for bacterial cell release from enzyme-treated biofilms. Post-enzyme exposure sample overlying solutions were collected and centrifuged to collect bacterial cells released by the enzyme treatment. The supernatants were removed, and the cell pellet resuspended in PBS and ATP luminescence was determined and compared to non-enzyme treated controls. Preferred enzyme pairs were expected to release more cells than untreated controls. Additionally, because maintaining extracted microbe viability was important, the ATP luminescence of the post-centrifugation cell free supernatants were also determined and compared to untreated controls. ATP is normally sequestered inside of cells so the presence of substantially more ATP in the cell free supernatant of enzyme treated biofilms indicates the enzyme treatment may have had toxic effects on the treated bacteria.
(§1) Treatment Toxicity: To measure cell toxicity the ATP luminescence of the post-centrifugation cell free supernatants were also determined using the BacTiterGlo Microbial Cell Viability Assay (Promega) and compared to untreated controls to give a percent control value shown. Values over 100% are viewed negatively as potential toxic effects of an enzyme treatment.
(§2) With both growth lifestyles a clear dose response curve is evident.

S. proteamaculans [2] = experiment: Treatment Toxicity Assay (ATP luminescence), planktonic lifestyle; type: cell-based, Serratia proteamaculans
Method: as §1, §2

S. proteamaculans [3] = experiment: Sanitizing agent treatment, single species biofilm controls in multi-species biofilm testing; type: cell-based, Serratia proteamaculans; conditions: 100 ug/ml BZAC
Method: Multi-species biofilms were screened by treatment with a sanitizing agent to identify species combinations that show heightened resistance. The multi-species biofilm with the most resistance to the sanitizer was used to screen three (3) enzyme combinations for anti-biofilm and bacterial release testing of the six (6) top performing two (2) enzyme combinations tested earlier. Non-nuclease enzymes were tested at two (2) different concentrations. Each three-enzyme combination was also compared to each of the two-enzyme combination core pair to try to identify synergy of the three-enzyme combination over the two-enzyme combination.
as §2

A. JohnsonII = experiment: Crystal Violet assay, two-enzyme treatment of mono-species biofilm; type: cell-based, Acinetobacter johnsonii; conditions: enzyme combined w/nuclease; Crystal Violet assay vs untreated control
Method: (§3) Applicant's initial testing was carried out with combinations of two (2) enzymes rather than a single enzyme with a nuclease present in all enzyme combinations. DNase I, a specific commonly utilized DNA nuclease, was selected as a universal enzyme. Both DNase I and other DNA nucleases were compared and formulated to have equivalent activity and then used interchangeably in the research. Nuclease was tested against all seven (7) species at three (3) concentrations and then the most overall effective concentration was used in two (2) enzyme testing. Initial two (2) enzyme testing utilized traditional mono-species biofilms of the 7 species in Table 1. The nuclease was also always tested alone in all experiments allowing some determination of its contribution to the resulting antibiofilm activity. Non-nuclease enzymes were tested at 3 concentrations while the nuclease concentration was held constant. Anti-biofilm activity was measured using the Crystal Violet assay, an easy and ubiquitous assay used for measuring changes in biofilm magnitude in the biofilm research industry.
(§4) The results of the initial two enzyme combination testing using the Crystal Violet assay is given in Table 3 and are given as a percent of the untreated control Crystal Violet signal.

7-species = experiment: Crystal Violet assay, average over the 7 mono-species biofilms; type: cell-based; conditions: enzyme combined w/nuclease; average over species tested
Method: as §3, §4

L. plantarum = experiment: Crystal Violet assay, two-enzyme treatment of mono-species biofilm; type: cell-based, Lactobacillus plantarum; conditions: enzyme combined w/nuclease; Crystal Violet assay vs untreated control
Method: as §3, §4

E. coli = experiment: as above; type: cell-based, Escherechia coli O157:H7; conditions: enzyme combined w/nuclease; Crystal Violet assay vs untreated control
Method: as §3, §4

[4] = system: S. proteamaculans biofilms; experiment: Crystal Violet assay, enzyme treatment of single species biofilm; type: cell-based, Serratia proteamaculans; conditions: enzyme combined w/nuclease; Crystal Violet assay vs untreated control
Method: as §3
Therefore, three-enzyme combinations were also tested against single species biofilms of this species.
as §4

S. enterica = experiment: Crystal Violet assay, two-enzyme treatment of mono-species biofilm; type: cell-based, Salmonella enterica; conditions: enzyme combined w/nuclease; Crystal Violet assay vs untreated control
Method: as §3, §4

L. monocytogenes = experiment: as above; type: cell-based, Listeria monocytogenes; conditions: enzyme combined w/nuclease; Crystal Violet assay vs untreated control
Method: as §3, §4

Row | Substance | Treatment Toxicity % Ctr (S. proteamaculans [1]; 1 μg/ml BZAC) [% Ctr] | Treatment Toxicity % Ctr (S. proteamaculans [1]; 10 μg/ml BZAC) [% Ctr] | Treatment Toxicity % Ctr (S. proteamaculans [1]; 100 μg/ml BZAC) [% Ctr] | cell-free ATP luminescence relative to untreated control biofilms (S. proteamaculans [1]; functionally active concentrations, a representative species) | Treatment Toxicity % Ctr (S. proteamaculans [2]; 1 μg/ml BZAC) [% Ctr] | Treatment Toxicity % Ctr (S. proteamaculans [2]; 10 μg/ml BZAC) [% Ctr] | Treatment Toxicity % Ctr (S. proteamaculans [2]; 100 μg/ml BZAC) [% Ctr] | biofilm reduction by sanitizer treatment (S. proteamaculans [3]) | Biofilm Reduction Due to Enzyme Cocktail Treatment, A. JohnsonII (A. JohnsonII) [%^] | Biofilm Reduction Due to Enzyme Cocktail Treatment, 7-species average (7-species) [%] | Biofilm Reduction Due to Enzyme Cocktail Treatment, L. plantarum (L. plantarum) [%] | Biofilm Reduction Due to Enzyme Cocktail Treatment, E. coli (E. coli) [%] | Biofilm Reduction Due to Enzyme Cocktail Treatment, S. proteamaculens [4] [%] | Biofilm Reduction Due to Enzyme Cocktail Treatment, S. enterica (S. enterica) [%] | Biofilm Reduction Due to Enzyme Cocktail Treatment, L. monocytogenes (L. monocytogenes) [%]
1 | Benzalkonium chloride [BZAC] | 1250.5 | 150.8 | 793.3 | over twelve-fold higher | 859.3 | 284.9 | 724.9 | consistently show biofilm reduction | – | – | – | – | – | – | –
2 | Cellulase | – | – | – | – | – | – | – | – | 22.4 | 5 | 0 | 0 | 0 | 10 | 0
